From the NIST ThermoML archive (doi:10.1016/j.tca.2014.10.019)
Numbers after ± are expanded uncertainties.

Experiment: mn = molality of the nth substance listed, in mol/kg
Conditions: 100 kPa, Liquid; for speed of sound: Frequency=3 MHz, Sing-around technique in a fixed-path interferometer; for mass density: Vibrating tube method

Structure (SMILES)	speed of sound (293.15 K, m1 = 0.1)	speed of sound (293.15 K, m1 = 0.2)	speed of sound (293.15 K, m1 = 0.3)	mass density (293.15 K, m1 = 0.1)	mass density (293.15 K, m1 = 0.2)	mass density (293.15 K, m1 = 0.3)	speed of sound (298.15 K, m1 = 0.1)	speed of sound (298.15 K, m1 = 0.2)	speed of sound (298.15 K, m1 = 0.3)	mass density (298.15 K, m1 = 0.1)	mass density (298.15 K, m1 = 0.2)	mass density (298.15 K, m1 = 0.3)	speed of sound (303.15 K, m1 = 0.1)	speed of sound (303.15 K, m1 = 0.2)	mass density (303.15 K, m1 = 0.1)	mass density (303.15 K, m1 = 0.2)	mass density (303.15 K, m1 = 0.3)	speed of sound (308.15 K, m1 = 0.1)	speed of sound (308.15 K, m1 = 0.2)	speed of sound (308.15 K, m1 = 0.3)	other results
[Cl-].[K+] [potassium chloride] + O	1488.5 ± 1.4 m/s	1493.8 ± 1.4 m/s	1497.6 ± 1.4 m/s	1002.99 ± 0.16 kg/m3	1007.72 ± 0.16 kg/m3	1013.42 ± 0.17 kg/m3	1502.5 ± 1.4 m/s	1507.3 ± 1.4 m/s	1511 ± 1.4 m/s	1001.79 ± 0.16 kg/m3	1006.48 ± 0.16 kg/m3	1012.13 ± 0.17 kg/m3	1514.6 ± 1.4 m/s	1519.3 ± 1.4 m/s	1000.36 ± 0.16 kg/m3	1005.02 ± 0.16 kg/m3	1010.63 ± 0.16 kg/m3	1525.1 ± 1.4 m/s	1529.6 ± 1.4 m/s	1532.9 ± 1.4 m/s	speed of sound (303.15 K, m1 = 0.3): 1522.8 ± 1.4 m/s; mass density (308.15 K, m1 = 0.1): 998.71 ± 0.16 kg/m3; mass density (308.15 K, m1 = 0.2): 1003.35 ± 0.16 kg/m3; mass density (308.15 K, m1 = 0.3): 1008.94 ± 0.16 kg/m3; speed of sound (313.15 K, m1 = 0.1): 1534 ± 1.4 m/s; speed of sound (313.15 K, m1 = 0.2): 1538.4 ± 1.4 m/s; speed of sound (313.15 K, m1 = 0.3): 1541.6 ± 1.4 m/s; mass density (313.15 K, m1 = 0.1): 996.88 ± 0.16 kg/m3; mass density (313.15 K, m1 = 0.2): 1001.49 ± 0.16 kg/m3; mass density (313.15 K, m1 = 0.3): 1007.02 ± 0.16 kg/m3
[Cl-].[Na+] [sodium chloride] + O	1489.3 ± 1.4 m/s	1496.2 ± 1.4 m/s	1502.3 ± 1.4 m/s	1002.42 ± 0.16 kg/m3	1006.67 ± 0.16 kg/m3	1010.64 ± 0.16 kg/m3	1503.3 ± 1.4 m/s	1509.9 ± 1.4 m/s	1515.8 ± 1.4 m/s	1001.21 ± 0.16 kg/m3	1005.41 ± 0.16 kg/m3	1009.34 ± 0.16 kg/m3	1515.5 ± 1.4 m/s	1521.8 ± 1.4 m/s	999.77 ± 0.16 kg/m3	1003.93 ± 0.16 kg/m3	1007.81 ± 0.16 kg/m3	1525.9 ± 1.4 m/s	1532 ± 1.4 m/s	1537.6 ± 1.4 m/s	mass density (308.15 K, m1 = 0.1): 998.12 ± 0.16 kg/m3; mass density (308.15 K, m1 = 0.2): 1002.25 ± 0.16 kg/m3; mass density (308.15 K, m1 = 0.3): 1006.1 ± 0.16 kg/m3; speed of sound (313.15 K, m1 = 0.1): 1534.8 ± 1.4 m/s; speed of sound (313.15 K, m1 = 0.2): 1540.7 ± 1.4 m/s; speed of sound (313.15 K, m1 = 0.3): 1546.2 ± 1.4 m/s; mass density (313.15 K, m1 = 0.1): 996.28 ± 0.16 kg/m3; mass density (313.15 K, m1 = 0.2): 1000.38 ± 0.16 kg/m3; mass density (313.15 K, m1 = 0.3): 1004.2 ± 0.16 kg/m3
